Article PMC6964667 (2020)
Each block holds one compound with its values, some of them ahead of it.

Assays:
[1] = system: D3 (DNA, hairpin) CATTGTCATGCCTTTTTGGCATGACAATG; assay: CD/UV melting at 260 nm; details: 10 mM KCl, 10 mM MgCl2, 5 mM CaCl2; sodium dimethyl arsinate pH 6.9, 6% DMSO; 3.3 equiv compound, 8.87 μM DNA
[2] = system: D3' (DNA, hairpin) CATTGTTATGCCTTTTTGGCATAACAATG; assay: CD/UV melting at 260 nm; details: 10 mM KCl, 10 mM MgCl2, 5 mM CaCl2; sodium dimethyl arsinate pH 6.9, 6% DMSO; 3.7 equiv compound, 8.87 μM DNA
[3] = system: D3' (DNA, hairpin) CATTGTTATGCCTTTTTGGCATAACAATG; assay: CD titration (ICD); details: 10 mM KCl, 10 mM MgCl2, 5 mM CaCl2, 10 μM DNA
[4] = system: D3 (DNA, hairpin) CATTGTCATGCCTTTTTGGCATGACAATG; assay: CD titration (ICD); details: 10 mM KCl, 10 mM MgCl2, 5 mM CaCl2, 10 μM DNA
[5] = system: D2' (DNA, hairpin) CATTGTCAGACTTTTTGTCTGACAATG; assay: CD/UV melting at 260 nm; details: 10 mM KCl, 10 mM MgCl2, 5 mM CaCl2; sodium dimethyl arsinate pH 6.9, 6% DMSO; 3.6 equiv compound, 8.87 μM DNA
[6] = system: D2 (DNA, hairpin) CATTGTTAGACTTTTTGTCTAACAATG; assay: CD titration (ICD); details: 10 mM KCl, 10 mM MgCl2, 5 mM CaCl2, 10 μM DNA
[7] = system: D2 (DNA, hairpin) CATTGTTAGACTTTTTGTCTAACAATG; assay: CD/UV melting at 260 nm; details: 10 mM KCl, 10 mM MgCl2, 5 mM CaCl2; sodium dimethyl arsinate pH 6.9, 6% DMSO; 3.9 equiv compound, 8.87 μM DNA
[8] = system: D2' (DNA, hairpin) CATTGTCAGACTTTTTGTCTGACAATG; assay: CD titration (ICD); details: 10 mM KCl, 10 mM MgCl2, 5 mM CaCl2, 10 μM DNA
[9] = system: D1 (DNA, hairpin) CATTGTCAGCCTTTTTGGCTGACAATG; assay: CD/UV melting at 260 nm; details: 10 mM KCl, 10 mM MgCl2, 5 mM CaCl2; sodium dimethyl arsinate pH 6.9, 6% DMSO; 3.3 equiv compound, 8.87 μM DNA
[10] = system: D1' (DNA, hairpin) CATTGTTAGCCTTTTTGGCTAACAATG; assay: CD/UV melting at 260 nm; details: 10 mM KCl, 10 mM MgCl2, 5 mM CaCl2; sodium dimethyl arsinate pH 6.9, 6% DMSO; 3.3 equiv compound, 8.87 μM DNA
[11] = system: D1' (DNA, hairpin) CATTGTTAGCCTTTTTGGCTAACAATG; assay: CD titration (ICD); details: 10 mM KCl, 10 mM MgCl2, 5 mM CaCl2, 10 μM DNA
[12] = system: D1 (DNA, hairpin) CATTGTCAGCCTTTTTGGCTGACAATG; assay: CD titration (ICD); details: 10 mM KCl, 10 mM MgCl2, 5 mM CaCl2, 10 μM DNA
[13] = 10 mM sodium dimethyl arsinate pH 6.9, up to 6% DMSO, 20 °C, saturation not reached
[14] = 10 mM sodium dimethyl arsinate pH 6.9, up to 6% DMSO, 20 °C
[15] = 10 mM sodium dimethyl arsinate pH 6.9, 20 °C, up to 4.8 equiv, no ICD

- ΔTm [5]: 1.4 K
- KD [6, 13]: 52.3 ± 21.0 µM
- ΔTm [7]: 2.0 K
- KD [8, 14]: 42.2 ± 6.3 µM
Compound: CN(C)CCCNC(=O)CCNC(=O)c1cc(NC(=O)c2cc(NC(=O)c3cc(NC(=O)Cc4cccc(/N=N\c5cccc(CNC(=O)c6cc(NC(=O)c7cc(NC(=O)c8nccn8C)cn7C)cn6C)c5)c4)cn3C)cn2C)cn1C

- binding [11, 15]: no
- binding [12, 15]: no
Compound: CN(C)CCCNC(=O)CCNC(=O)c1cc(NC(=O)c2cc(NC(=O)c3nc(NC(=O)Cc4cccc(/N=N/c5cccc(CNC(=O)c6cc(NC(=O)c7cc(NC(=O)c8nccn8C)cn7C)cn6C)c5)c4)cn3C)cn2C)cn1C

- binding [6, 15]: no
- binding [8, 15]: no
Compound: CN(C)CCCNC(=O)CCNC(=O)c1cc(NC(=O)c2cc(NC(=O)c3cc(NC(=O)Cc4cccc(/N=N/c5cccc(CNC(=O)c6cc(NC(=O)c7cc(NC(=O)c8nccn8C)cn7C)cn6C)c5)c4)cn3C)cn2C)cn1C

Second part, the compound before the results:

Compound: CN(C)CCCNC(=O)CCNC(=O)c1cc(NC(=O)c2cc(NC(=O)c3nc(NC(=O)c4cc(NC(=O)Cc5cccc(/N=N\c6cccc(CNC(=O)c7cc(NC(=O)c8cc(NC(=O)c9cc(NC(=O)c%10nccn%10C)cn9C)cn8C)cn7C)c6)c5)cn4C)cn3C)cn2C)cn1C
- ΔTm [1]: 3.5 K
- ΔTm [2]: 0.4 K
- KD [3, 13]: 52.9 ± 29.6 µM
- KD [4, 14]: 21.3 ± 11.2 µM

Compound: CN(C)CCCNC(=O)CCNC(=O)c1cc(NC(=O)c2cc(NC(=O)c3nc(NC(=O)c4cc(NC(=O)Cc5cccc(/N=N/c6cccc(CNC(=O)c7cc(NC(=O)c8cc(NC(=O)c9cc(NC(=O)c%10nccn%10C)cn9C)cn8C)cn7C)c6)c5)cn4C)cn3C)cn2C)cn1C
- binding [3, 15]: no
- binding [4, 15]: no

Compound: CN(C)CCCNC(=O)CCNC(=O)c1cc(NC(=O)c2cc(NC(=O)c3nc(NC(=O)Cc4cccc(/N=N\c5cccc(CNC(=O)c6cc(NC(=O)c7cc(NC(=O)c8nccn8C)cn7C)cn6C)c5)c4)cn3C)cn2C)cn1C
- ΔTm [9]: 3.5 K
- ΔTm [10]: 2.1 K
- KD [11, 14]: 13.2 ± 7.8 µM
- KD [12, 14]: 11.8 ± 6.0 µM
